The source of these data is article PMC4823997 (Journal of medicinal chemistry, 2015).

A word on the EC50: it is the midpoint of the concentration-response curve. Broadly, the CC50 is the concentration giving 50% cytotoxicity. A word on the inhibition: it is the percentage by which the read-out fell short of the control.

One data set concerns the target hCXCR4 (Homo sapiens, UniProt P61073). In words: Radioligand [125I]SDF-1α binding to hCXCR4-transfected HEK293 membrane.
In the next data set the test system is HIV-1 IIIB. The data set can be described thus: Luciferase activity assay of HIV-1 infectivity in TZM-bl cells. Format: cell-based. The settings on record: read-out: Anti-HIV EC50; TZM-bl cells, HIV-1 IIIB, M.O.I. 1.
A further data set has as its system CEM cells. The data set can be described thus: Cytotoxicity assay. It is filed as cell-based, human.
The next data set concerns TZM-bl cells. In words: Cytotoxicity assay. Format: cell-based.
The target in a further data set is T1, CXCR2 (Homo sapiens, UniProt P25025).
T1 sequence (P25025 1-360): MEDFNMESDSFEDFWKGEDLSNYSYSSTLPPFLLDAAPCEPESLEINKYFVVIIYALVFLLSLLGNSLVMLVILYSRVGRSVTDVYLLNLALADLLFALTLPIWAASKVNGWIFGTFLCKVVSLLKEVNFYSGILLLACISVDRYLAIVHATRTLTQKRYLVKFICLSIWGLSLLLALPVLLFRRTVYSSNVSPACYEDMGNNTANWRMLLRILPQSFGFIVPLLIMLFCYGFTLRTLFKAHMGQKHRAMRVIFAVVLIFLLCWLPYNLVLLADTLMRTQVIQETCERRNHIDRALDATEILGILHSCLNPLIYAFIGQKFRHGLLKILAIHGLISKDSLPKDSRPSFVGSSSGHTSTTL
The data set can be described thus: CXCR2 radioligand binding assay. As to conditions: for selective index CXCR2: selectivity for CXCR4 binding versus CXCR2.

Another data set has as its target CCR2 (Homo sapiens, UniProt P41597). The data set can be described thus: CCR2 radioligand binding assay. The settings on record: for selective index CCR2: selectivity for CXCR4 binding versus CCR2.
A further data set addresses T2, CCR4 (Homo sapiens, UniProt P51679).
T2 sequence (P51679 1-360): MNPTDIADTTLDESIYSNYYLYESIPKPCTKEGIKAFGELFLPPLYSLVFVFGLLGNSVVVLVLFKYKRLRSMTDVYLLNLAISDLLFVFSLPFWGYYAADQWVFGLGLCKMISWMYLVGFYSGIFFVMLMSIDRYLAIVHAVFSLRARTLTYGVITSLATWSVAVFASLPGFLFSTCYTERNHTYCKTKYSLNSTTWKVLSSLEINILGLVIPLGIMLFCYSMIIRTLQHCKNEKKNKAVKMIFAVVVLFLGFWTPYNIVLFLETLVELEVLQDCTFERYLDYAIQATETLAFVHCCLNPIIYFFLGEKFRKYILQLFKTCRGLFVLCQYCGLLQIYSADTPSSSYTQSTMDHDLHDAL
In words: CCR4 radioligand binding assay. The settings on record: for selective index CCR4: selectivity for CXCR4 binding versus CCR4.

A further data set concerns the target CCR5 (Homo sapiens, UniProt P51681). In words: CCR5 radioligand binding assay. As to conditions: for selective index CCR5: selectivity for CXCR4 binding versus CCR5.
The target in a further data set is CXCR7 (Homo sapiens, UniProt P25106). It is filed as cell-based.
CXCR7, sequence (P25106 whole entry): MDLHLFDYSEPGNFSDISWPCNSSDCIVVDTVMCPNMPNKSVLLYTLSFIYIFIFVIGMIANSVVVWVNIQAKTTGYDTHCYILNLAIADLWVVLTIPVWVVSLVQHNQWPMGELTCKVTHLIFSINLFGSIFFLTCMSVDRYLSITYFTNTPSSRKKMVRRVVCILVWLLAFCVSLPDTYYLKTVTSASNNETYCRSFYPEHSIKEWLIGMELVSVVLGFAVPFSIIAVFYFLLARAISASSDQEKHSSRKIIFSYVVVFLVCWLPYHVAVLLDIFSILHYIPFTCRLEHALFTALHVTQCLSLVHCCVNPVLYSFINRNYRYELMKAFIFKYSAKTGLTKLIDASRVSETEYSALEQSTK
Data set [1] deals with CCRF-CEM cells that express endogenous human CXCR4. The settings on record: read-out: IC50 to block SDF-1α-induced CEM migration, 10 nM SDF-1, 2.5 h.
The subject of the next data set is HIV-1. The settings on record: 0 to 20 nM.
Data set [2] in a line: Cytotoxicity assay. Format: cell-based, human. The settings on record: human, CEM cells (T-lymphoblast leukemia).
Data set [3] in a line: Cytotoxicity assay. It is filed as cell-based. The settings on record: human, TZM-bl cells.

The structures appear in SMILES notation. Read-outs that look alike come from different tables or passages of the source.

CCR2, sequence (P41597 whole entry, species assumed): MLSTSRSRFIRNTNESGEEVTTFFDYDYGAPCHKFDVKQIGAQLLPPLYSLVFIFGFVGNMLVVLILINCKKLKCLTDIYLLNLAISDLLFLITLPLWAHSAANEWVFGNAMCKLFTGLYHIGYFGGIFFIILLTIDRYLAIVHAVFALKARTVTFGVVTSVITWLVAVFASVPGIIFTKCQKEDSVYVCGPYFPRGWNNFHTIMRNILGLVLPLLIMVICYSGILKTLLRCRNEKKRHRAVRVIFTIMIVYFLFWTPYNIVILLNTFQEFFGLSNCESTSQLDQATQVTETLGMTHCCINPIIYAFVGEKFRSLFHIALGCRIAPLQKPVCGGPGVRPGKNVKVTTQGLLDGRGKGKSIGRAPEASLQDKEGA
CCR5, sequence (P51681 whole entry, species assumed): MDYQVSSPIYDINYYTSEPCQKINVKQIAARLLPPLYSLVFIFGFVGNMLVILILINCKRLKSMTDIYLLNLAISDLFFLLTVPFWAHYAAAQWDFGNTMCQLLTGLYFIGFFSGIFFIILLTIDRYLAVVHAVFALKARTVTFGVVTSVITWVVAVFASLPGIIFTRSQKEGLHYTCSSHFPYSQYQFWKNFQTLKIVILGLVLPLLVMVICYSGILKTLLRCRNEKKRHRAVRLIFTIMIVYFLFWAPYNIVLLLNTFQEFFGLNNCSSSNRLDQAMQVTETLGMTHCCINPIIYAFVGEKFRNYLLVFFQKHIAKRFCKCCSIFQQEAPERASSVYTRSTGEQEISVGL
hCXCR4, sequence (P61073 whole entry): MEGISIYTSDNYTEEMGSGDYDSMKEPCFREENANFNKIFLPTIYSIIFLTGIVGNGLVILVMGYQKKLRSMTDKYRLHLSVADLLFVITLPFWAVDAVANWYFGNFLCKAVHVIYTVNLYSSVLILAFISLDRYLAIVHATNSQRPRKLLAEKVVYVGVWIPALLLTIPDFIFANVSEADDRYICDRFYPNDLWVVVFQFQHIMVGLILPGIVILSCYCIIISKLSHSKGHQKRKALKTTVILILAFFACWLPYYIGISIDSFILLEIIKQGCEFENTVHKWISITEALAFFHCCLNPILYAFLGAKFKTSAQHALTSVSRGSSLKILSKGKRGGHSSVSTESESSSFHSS

Consider `c1nc2c(NCc3ccc(CCNCCCNC4CCCCC4)cc3)nc(N3CCNCC3)nc2[nH]1` [Compound 24, N-Cyclohexyl-N′-(2-{4-[(2-piperazin-1-yl-9H-purin-6-ylami-no)-methyl]-phenyl}-ethyl)-propane-1,3-diamine], for which the “inhibition (%) CXCR4” value at hCXCR4 (at 10 μM) was found to be 100%. For the same compound, the “fold increase in CXCR4 binding affinity compared to AMD3100” value on hCXCR4 (relative to AMD3100) is on record as 13 fold. For the same compound, the “fold increase in CXCR4 binding affinity compared to compound 4” value on hCXCR4 (relative to compound 4) is 2.2 fold. In addition, the EC50 with HIV-1 IIIB amounted to 0.00051 ± 2e-05 µM. Besides, the “Selective Index CC50/EC50 CEM” value in the data set with CEM cells (CC50 (CEM) / anti-HIV EC50) was more than 98039. Moreover, the CC50 was more than 50 µM with CEM cells (read-out: Cytotoxicity CC50 CEM, CEM cells, 72 h) and more than 50 µM in the data set with TZM-bl cells (read-out: Cytotoxicity CC50 TZM-bl, TZM-bl cells, 72 h). The “Selective Index CC50/EC50 TZM-bl” value in the data set on TZM-bl cells (CC50 (TZM-bl) / anti-HIV EC50) is more than 98039. The “inhibition (%) CXCR2” value on CXCR2 (at 10 μM) is 16%. In addition, the IC50 is more than 10 µM at CXCR2 (read-out: IC50 CXCR2); more than 10 µM at CCR2 (read-out: IC50 CCR2); more than 10 µM on CCR4 (read-out: IC50 CCR4); more than 10 µM on CCR5 (read-out: IC50 CCR5); 0.0031 µM in data set [1]. In addition, on CXCR2, the “selective index CXCR2” value is more than 609. The “inhibition (%) CCR2” value at CCR2 (at 10 μM) turned out to be 10%. Also, at CCR2, the “selective index CCR2” value was more than 609. Also, at CCR4 (at 10 μM), the “inhibition (%) CCR4” value was determined as 11%. At CCR4, the “selective index CCR4” value is more than 609. Moreover, at CCR5 (at 10 μM), the “inhibition (%) CCR5” value is recorded as 15%. The “selective index CCR5” value at CCR5 is listed as more than 609. Further, at CXCR7 (CXCR7 β-arrestin assay versus HIV entry inhibition), the “functional selectivity over CXCR4-dependent HIV entry inhibition” value is given as more than 1960 fold. Moreover, the “antagonism of SDF-1α binding to CXCR7 or triggering of β-arrestin recruitment” value on CXCR7 (even at a 40-fold higher SDF-1α concentration) is recorded as “did not antagonize”. Moreover, the “anti-HIV activity, time of addition” value in the data set on HIV-1 (added 3 h after HIV-1 infection) is on record as “significantly reduced”; with HIV-1 (added 3 h before or simultaneously with HIV-1 infection) it was “maintained its potent anti-HIV activity”.

With `c1cc(CNCCCNC2CCCCC2)cc(CNc2nc(N3CCNCC3)nc3[nH]cnc23)c1` [Compound 25, N-Cyclohexyl-N′-{3-[(2-piperazin-1-yl-9H-purin-6-ylamino)-methyl]-benzyl}-propane-1,3-diamine], the inhibition at 10 µM on hCXCR4 (read-out: inhibition (%) CXCR4) was 100%; at CXCR2 (read-out: inhibition (%) CXCR2), 12%; on CCR2 (read-out: inhibition (%) CCR2), 2%; on CCR4 (read-out: inhibition (%) CCR4), 0%; on CCR5 (read-out: inhibition (%) CCR5), 14%. Besides, at hCXCR4 (relative to compound 24), the “fold increase in CXCR4 binding affinity compared to compound 24” value turned out to be 4 fold. Moreover, the half-maximal effective concentration (EC50) with HIV-1 IIIB was 0.00061 ± 0.00027 µM. The CC50 at 72 h in the data set “Cytotoxicity assay [2]” and in “Cytotoxicity assay [3]” was more than 50 µM each time. In addition, the selectivity ratio at 72 h in the data set “Cytotoxicity assay [2]” and in the data set “Cytotoxicity assay [3]” was more than 83300 throughout. Besides, the IC50 at CXCR2, at CCR2, at CCR4 and on CCR5 was more than 10 µM throughout. In addition, the “selective index CXCR2” value at CXCR2 was more than 2380. The “selective index CCR2” value at CCR2 is given as more than 2380. Besides, the “selective index CCR4” value on CCR4 is reported as more than 2380. Also, the “selective index CCR5” value at CCR5 is reported as more than 2380.
